According to ChEMBL document CHEMBL2321730, “Development of κ opioid receptor antagonists” (J Med Chem, 2013):
Each block holds one molecule with its values, some of them ahead of it. Where a SMILES comes first, the peptide text is derived from it. [ ]: non-standard residue; d: D form.

Legend:
[1] = target: T1, Kappa-type opioid receptor (Homo sapiens, UniProt P41145); assay: Binding affinity to KOR (unknown origin)
[2] = target: Delta-type opioid receptor (Homo sapiens, UniProt P41143); assay: Antagonist activity at DOR (unknown origin) by [35S]GTPgammaS assay; type: functional
[3] = target: T1, Kappa-type opioid receptor; assay: Antagonist activity at KOR (unknown origin) by [35S]GTPgammaS binding assay
Mu-type opioid receptor = Mu-type opioid receptor (Homo sapiens, UniProt P35372); assay: Antagonist activity at MOR (unknown origin) by [35S]GTPgammaS binding assay
[4] = target: T1, Kappa-type opioid receptor; assay: Inhibition of dynorphin A (1-13) NH2 binding to KOR (unknown origin) by adenylyl cyclase assay; type: functional
[5] = Displacement of DPDPE from DOR in guinea pig brain membrane fraction after 30 mins by scintillation counting analysis; type: cell membranes, Cavia porcellus
Mus musculus [6] = assay: Antinociceptive activity in icv dosed C57B1/6J mouse assessed as tail withdrawal latency measured in every 10 mins for 1 hr by warm water tail withdrawal assay; type: functional, organism-based
[7] = target: Kappa-type opioid receptor (Rattus norvegicus, UniProt P34975); assay: Displacement of [3H]diprenorphine from rat cloned KOR expressed in CHO cells after 90 mins by scintillation counting analysis
Mus musculus [8] = assay: Antinociceptive activity in C57B1/6J mouse at 10 nmol, icv administered 80 mins prior to U50488 addition by warm water tail withdrawal assay; type: functional
Rattus norvegicus [9] = assay: In vivo receptor occupancy at DOR in po dosed Harlan Sprague-Dawley rat brain after 5.5 hrs by LC/MS/MS analysis; type: functional
Rattus norvegicus [10] = assay: In vivo receptor occupancy at MOR in po dosed Harlan Sprague-Dawley rat brain after 5.5 hrs by LC/MS/MS analysis; type: functional

T1 sequence (P41145 whole entry): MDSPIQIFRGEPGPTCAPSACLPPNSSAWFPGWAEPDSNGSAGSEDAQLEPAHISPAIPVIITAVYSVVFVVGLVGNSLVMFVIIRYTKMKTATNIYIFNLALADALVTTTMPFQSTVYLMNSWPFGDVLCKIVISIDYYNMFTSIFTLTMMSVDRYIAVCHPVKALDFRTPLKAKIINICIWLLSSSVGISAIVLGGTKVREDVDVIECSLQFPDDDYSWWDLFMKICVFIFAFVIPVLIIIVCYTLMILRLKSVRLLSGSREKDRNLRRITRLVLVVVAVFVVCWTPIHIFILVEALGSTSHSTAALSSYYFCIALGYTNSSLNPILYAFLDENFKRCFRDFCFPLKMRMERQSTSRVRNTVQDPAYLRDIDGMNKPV
Sequence of Kappa-type opioid receptor (Rattus norvegicus, UniProt P34975) (P34975 whole entry): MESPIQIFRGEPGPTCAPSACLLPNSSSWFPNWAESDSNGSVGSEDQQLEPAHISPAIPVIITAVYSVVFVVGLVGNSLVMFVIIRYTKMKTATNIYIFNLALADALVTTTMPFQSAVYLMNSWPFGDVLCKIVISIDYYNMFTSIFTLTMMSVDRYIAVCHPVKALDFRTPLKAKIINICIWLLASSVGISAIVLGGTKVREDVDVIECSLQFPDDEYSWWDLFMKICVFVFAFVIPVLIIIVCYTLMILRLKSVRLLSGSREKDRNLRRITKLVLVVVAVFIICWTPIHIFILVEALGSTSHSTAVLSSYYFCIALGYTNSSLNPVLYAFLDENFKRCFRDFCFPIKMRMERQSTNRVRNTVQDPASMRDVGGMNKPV
Sequence of Mu-type opioid receptor (P35372 whole entry): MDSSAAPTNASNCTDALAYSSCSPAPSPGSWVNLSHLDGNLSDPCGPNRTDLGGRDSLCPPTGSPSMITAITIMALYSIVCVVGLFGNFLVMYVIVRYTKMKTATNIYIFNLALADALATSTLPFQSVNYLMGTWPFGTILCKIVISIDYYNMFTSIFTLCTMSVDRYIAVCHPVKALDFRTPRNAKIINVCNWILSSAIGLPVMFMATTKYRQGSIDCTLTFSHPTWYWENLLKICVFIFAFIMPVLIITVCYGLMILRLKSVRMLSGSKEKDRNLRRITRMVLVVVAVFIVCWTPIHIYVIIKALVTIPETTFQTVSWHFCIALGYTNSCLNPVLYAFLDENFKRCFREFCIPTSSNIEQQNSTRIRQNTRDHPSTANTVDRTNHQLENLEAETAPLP
Sequence of Delta-type opioid receptor (P41143 whole entry): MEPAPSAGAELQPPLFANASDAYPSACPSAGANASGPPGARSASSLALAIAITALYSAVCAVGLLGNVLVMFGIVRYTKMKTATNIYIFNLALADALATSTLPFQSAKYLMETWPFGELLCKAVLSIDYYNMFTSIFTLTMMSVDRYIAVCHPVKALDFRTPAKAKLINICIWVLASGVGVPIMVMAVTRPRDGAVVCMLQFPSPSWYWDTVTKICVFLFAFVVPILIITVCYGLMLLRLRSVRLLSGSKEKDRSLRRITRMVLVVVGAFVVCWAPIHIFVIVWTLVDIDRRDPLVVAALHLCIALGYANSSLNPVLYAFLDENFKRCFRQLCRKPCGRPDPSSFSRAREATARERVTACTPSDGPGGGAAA

Ki [1]: 0.5 nM
IC50 [2]: > 30000 nM
IC50 [3]: 77 nM
IC50 (Mu-type opioid receptor): > 30000 nM
Compound: O=C(Nc1cccc(NC(=O)c2cccc(N3CCCCC3)c2)c1)c1cccc(OC2CCN(CC3CC3)CC2)c1

Compound: CC[C@H](C)[C@@H]1NC(=O)[C@H](CCCNC(=N)N)NC(=O)[C@@H](NC(=O)[C@H](Cc2ccccc2)NC(=O)CNC(=O)CNC(=O)[C@H](Cc2ccc(O)cc2)NCc2ccccc2)CC(=O)NC[C@@H](C(=O)N[C@@H](CCCNC(=N)N)C(=O)N2CCC[C@H]2C(=O)N[C@@H](CCCCN)C(N)=O)NC1=O
Kb [4]: 84 nM

Compound: O=C1N[C@@H](Cc2ccccc2)C(=O)N2CCC[C@@H]2C(=O)N[C@@H](Cc2ccccc2)C(=O)N[C@H]1Cc1c[nH]c2ccccc12 (cyclo(FWF[dP]))
IC50 [5]: 2600 nM
EC50 (Mus musculus [6]): 3.71 nmol
Ki [7]: 35.4 nM

Compound: O=C1N[C@H](Cc2c[nH]c3ccccc23)C(=O)N[C@@H](Cc2ccccc2)C(=O)N2CCC[C@@H]2C(=O)N[C@H]1Cc1ccccc1 (cyclo(F[dP]F[dW]))
Activity (Mus musculus [8]): 10%
Ki [7]: 30.6 nM

Compound: Cc1cc(C)cc([C@@H]2CCCN2Cc2ccc(Oc3ccc(C(N)=O)cc3F)cc2)c1 [ATICAPRANT]
ED50 (Rattus norvegicus [9]): > 30 mg/kg
ED50 (Rattus norvegicus [10]): > 30 mg/kg
